Laboratory results from patent US20230081426A1, “COMPOUNDS AND METHODS FOR KRAS MODULATION AND INDICATIONS THEREFOR” (Plexxikon Inc., priority 2020, published 2023).

Columns and labels:
[1] = target: T1, G12D-mutant human KRAS (amino acid residues 1-188) (Homo sapiens, UniProt P01116, G12D); experiment: KRAS Binding Disruption Assay (AlphaScreen; biotinylated KRpep-2d analogue or RAF1-RBD), G12D; details: KRAS G12D; geometric mean; read-out: KRAS GMean IC50 (uM) MUTATION: G12D
T1 construct: G12D or G12C-mutant human KRAS (amino acid residues 1-188) with FLAG tag; made in house; host or cells: E. coli
Procedure, shortened: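 Compounds are titrated against 5-20 nM mutant KRAS and 5-20 nM of either a biotinylated KRpep-2d analogue or RAF1-RBD, incubated 1 h at 25° C. Disruption is detected as reduced Alpha signal after 1 h with donor and acceptor beads at 10 μg/mL.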

[2] = target: T2, G12V-mutant human KRAS (amino acid residues 1-188) (Homo sapiens, UniProt P01116, G12V); experiment: KRAS Binding Competition Assay (AlphaScreen; biotinylated KRpep-2d analogue), G12V; details: geometric mean, read-out: KRAS GMean IC50 (uM) MUTATION: G12V
T2 construct: G12V-mutant human KRAS (amino acid residues 1-188) with FLAG tag was purified from E. coli; made in house; host or cells: E. coli

## COC(=N)CC(=O)N1[C@@H]2CC[C@H]1CN(c1nc(OC[C@@H]3CCCN3C)nc3c(F)c(-c4cc(O)cc5ccccc45)c(Cl)cc13)C2 [P-0450, methyl 3-((1R,5S)-3-(6-chloro-8-fluoro-7-(3-hydroxynaphthalen-1-yl)-2-(((S)-1-methylpyrrolidin-2-yl)methoxy)quinazolin-4-yl)-3,8-diazabicyclo[3.2.1]octan-8-yl)-3-oxopropanimidate]
[1]
  IC50: 10 to 100 µM
[2]
  IC50: 10 to 100 µM

## CN1CCC[C@H]1COc1nc(N2C[C@H]3CC[C@@H](C2)N3CC(=O)N2CCC(N)CC2)c2ccc(-c3cc(O)cc4ccccc34)c(F)c2n1 [P-0427, 1-(4-aminopiperidin-1-yl)-2-((1R,5S)-3-(8-fluoro-7-(3-hydroxynaphthalen-1-yl)-2-(((S)-1-methylpyrrolidin-2-yl)methoxy)quinazolin-4-yl)-3,8-diazabicyclo[3.2.1]octan-8-yl)ethan-1-one]
[1]
  IC50: 10 to 100 µM
[2]
  IC50: 100 to 1000 µM

## O=[N+]([O-])c1ccc(COc2nc(N3C[C@H]4CC[C@@H](C3)N4)c3cc(Cl)c(-c4c(O)cccc4F)c(F)c3n2)cc1 [P-0389, 2-(4-((1R,5S)-3,8-diazabicyclo[3.2.1]octan-3-yl)-6-chloro-8-fluoro-2-((4-nitrobenzyl)oxy)quinazolin-7-yl)-3-fluorophenol]
[1]
  IC50: 0.0001 to 10 µM
[2]
  IC50: 10 to 100 µM

## CN1CCC[C@H]1COc1nc(N2[C@@H]3CC[C@H]2CN(CC(=O)N2CCC(N)CC2)C3)c2ccc(-c3cc(O)cc4ccccc34)cc2n1 [P-0274, 1-(4-aminopiperidin-1-yl)-2-((1R,5S)-8-(7-(3-hydroxynaphthalen-1-yl)-2-(((S)-1-methylpyrrolidin-2-yl)methoxy)quinazolin-4-yl)-3,8-diazabicyclo[3.2.1]octan-3-yl)ethan-1-one]
[1]
  IC50: 0.0001 to 10 µM
[2]
  IC50: 100 to 1000 µM

## CN1CCC[C@H]1COc1nc(N2C[C@@H]3C[C@H]2CN3)c2cc(Cl)c(-c3cc(O)cc4ccccc34)c(F)c2n1 [P-0042, 4-(4-((1S,4S)-2,5-diazabicyclo[2.2.1]heptan-2-yl)-6-chloro-8-fluoro-2-(((S)-1-methylpyrrolidin-2-yl)methoxy)quinazolin-7-yl)naphthalen-2-ol]
[1]
  IC50: 0.0001 to 10 µM
[2]
  IC50: 10 to 100 µM

## OCC1(COc2nc(N3C[C@H]4CC[C@@H](C3)N4)c3ccc(-c4cc(O)cc5ccccc45)c(F)c3n2)COC1 [P-0613, 4-(4-((1R,5S)-3,8-diazabicyclo[3.2.1]octan-3-yl)-8-fluoro-2-((3-(hydroxymethyl)oxetan-3-yl)methoxy)quinazolin-7-yl)naphthalen-2-ol]
[1]
  IC50: 0.0001 to 10 µM
[2]
  IC50: 10 to 100 µM

## Cc1ccc2[nH]ncc2c1-c1c(Cl)cc2c(N3C[C@H]4CC[C@@H](C3)N4)nc(OC[C@@H]3CCCN3C)nc2c1F [P-0028, 4-((1R,5S)-3,8-diazabicyclo[3.2.1]octan-3-yl)-6-chloro-8-fluoro-7-(5-methyl-1H-indazol-4-yl)-2-(((S)-1-methylpyrrolidin-2-yl)methoxy)quinazoline]
[1]
  IC50: 0.0001 to 10 µM
[2]
  IC50: 100 to 1000 µM

## CCOC(=O)CNC(=O)N1[C@@H]2CC[C@H]1CN(c1nc(OCC34CCCN3CCC4)nc3cc(-c4cc(O)cc5ccccc45)ccc13)C2 [P-0090, ethyl ((1R,5S)-3-(7-(3-hydroxynaphthalen-1-yl)-2-((tetrahydro-1H-pyrrolizin-7a(5H)-yl)methoxy)quinazolin-4-yl)-3,8-diazabicyclo[3.2.1]octane-8-carbonyl)glycinate]
[1]
  IC50: 0.0001 to 10 µM
[2]
  IC50: 0.0001 to 10 µM

## CN1CCC[C@H]1COc1nc(N2CC3COCC(C2)N3C(=O)NC2CCOC2)c2ccc(-c3cc(O)cc4ccccc34)c(F)c2n1 (mixture of isomers) [P-0251, rac-7-(8-fluoro-7-(3-hydroxynaphthalen-1-yl)-2-(((R)-1-methylpyrrolidin-2-yl)methoxy)quinazolin-4-yl)-N-(tetrahydrofuran-3-yl)-3-oxa-7,9-diazabicyclo[3.3.1]nonane-9-carboxamide]
[1]
  IC50: 0.0001 to 10 µM
[2]
  IC50: 0.0001 to 10 µM

## Nc1ccc(CCc2nc(N3[C@@H]4CC[C@H]3CNC4)c3ccc(-c4cc(O)cc5ccccc45)cc3n2)cc1 [P-0243, 4-(2-(4-aminophenethyl)-4-((1R,5S)-3,8-diazabicyclo[3.2.1]octan-8-yl)quinazolin-7-yl)naphthalen-2-ol]
[1]
  IC50: 0.0001 to 10 µM
[2]
  IC50: 0.0001 to 10 µM

## CN1CCC[C@H]1COc1nc(N2[C@@H]3CC[C@H]2CN(C(=O)CC2CCCNC2)C3)c2ccc(-c3cc(O)cc4ccccc34)cc2n1 (stereo partly drawn) [P-0190, 1-((1R,5S)-8-(7-(3-hydroxynaphthalen-1-yl)-2-(((S)-1-methylpyrrolidin-2-yl)methoxy)quinazolin-4-yl)-3,8-diazabicyclo[3.2.1]octan-3-yl)-2-(piperidin-3-yl)ethan-1-one]
[1]
  IC50: 10 to 100 µM
[2]
  IC50: 10 to 100 µM

## CC(C)(O)CNC(=O)N1[C@@H]2CC[C@H]1CN(c1nc(OCC34CCCN3CCC4)nc3cc(-c4cc(O)cc5ccccc45)ccc13)C2 [P-0141, (1R,5S)-N-(2-hydroxy-2-methylpropyl)-3-(7-(3-hydroxynaphthalen-1-yl)-2-((tetrahydro-1H-pyrrolizin-7a(5H)-yl)methoxy)quinazolin-4-yl)-3,8-diazabicyclo[3.2.1]octane-8-carboxamide]
[1]
  IC50: 0.0001 to 10 µM
[2]
  IC50: 0.0001 to 10 µM

## CN1CCC[C@H]1COc1nc(N2[C@@H]3CC[C@H]2CN(C(=O)c2cc[nH]n2)C3)c2ccc(-c3cc(O)cc4ccccc34)cc2n1 [P-0273, ((1R,5S)-8-(7-(3-hydroxynaphthalen-1-yl)-2-(((S)-1-methylpyrrolidin-2-yl)methoxy)quinazolin-4-yl)-3,8-diazabicyclo[3.2.1]octan-3-yl)(1H-pyrazol-3-yl)methanone]
[1]
  IC50: 10 to 100 µM
[2]
  IC50: 10 to 100 µM

## OCc1nc(N2C[C@H]3CC[C@@H](C2)N3)c2cc(Cl)c(-c3c(O)cccc3F)c(F)c2n1 [P-0456, 2-(4-((1R,5S)-3,8-diazabicyclo[3.2.1]octan-3-yl)-6-chloro-8-fluoro-2-(hydroxymethyl)quinazolin-7-yl)-3-fluorophenol]
[1]
  IC50: 10 to 100 µM
[2]
  IC50: 10 to 100 µM

## CN1CCC[C@H]1COc1nc(N2C[C@H]3CC[C@@H](C2)N3C(=O)CCC#N)c2ccc(-c3cc(O)cc4ccccc34)cc2n1 [P-0383, 4-((1R,5S)-3-(7-(3-hydroxynaphthalen-1-yl)-2-(((S)-1-methylpyrrolidin-2-yl)methoxy)quinazolin-4-yl)-3,8-diazabicyclo[3.2.1]octan-8-yl)-4-oxobutanenitrile]
[1]
  IC50: 10 to 100 µM
[2]
  IC50: 0.0001 to 10 µM

## CN1CCc2cc(Oc3nc(N4[C@@H]5CC[C@H]4CNC5)c4ccc(-c5cc(O)cc6ccccc56)cc4n3)ccc2C1 [P-0238, 4-(4-((1R,5S)-3,8-diazabicyclo[3.2.1]octan-8-yl)-2-((2-methyl-1,2,3,4-tetrahydroisoquinolin-6-yl)oxy)quinazolin-7-yl)naphthalen-2-ol]
[1]
  IC50: 0.0001 to 10 µM
[2]
  IC50: 0.0001 to 10 µM

## CN1CCC[C@H]1COc1nc(N2CC3CCC(C2)N3)c2ccc(-c3cc(Cl)cn4ccnc34)cc2n1 [P-0235]
[1]
  IC50: 10 to 100 µM
[2]
  IC50: 10 to 100 µM

## Oc1cc(-c2ccc3c(N4[C@@H]5CC[C@H]4CNC5)nc(Oc4cccnc4)nc3c2)c2ccccc2c1 [P-0321, 4-(4-((1R,5S)-3,8-diazabicyclo[3.2.1]octan-8-yl)-2-(pyridin-3-yloxy)quinazolin-7-yl)naphthalen-2-ol]
[1]
  IC50: 10 to 100 µM
[2]
  IC50: 10 to 100 µM
